Measurements reported in patent publication US8388950B2, “Coenzyme Q10-containing water-soluble composition and process for production thereof” (Kaneka Corporation, priority 2005, dated 2013).

Test: DSC determination of the crystallization peak of coenzyme Q10 (effect of preventing crystallization)
Type: physicochemical
Conditions: held at 80° C. 10 minutes, cooled to −50° C. at −5° C./min
Description: The component materials shown in Table 1 were warmed and dissolved at 60° C., and weighed out the appropriate amount on a measuring aluminum pan to make samples for DSC determination.
Using the samples obtained in Reference Examples 1 to 10, the effect of preventing coenzyme Q10 crystallization derived from a lipophilic sucrose fatty acid ester was determined by DSC (differential scanning calorimetry).
Detector: DSC6220 (manufactured by SII Nano Technology Inc.)
Determination condition: the crystallization peak (exothermic peak) of coenzyme Q10 was determined after retaining the samples at 80° C. for 10 minutes and then cooling them to −50° C. at a cooling rate of −5° C./rain.

- DSC exothermic peak: −11.4 °C
Compound: COC1=C(OC)C(=O)C(C/C=C(\C)CC/C=C(\C)CC/C=C(\C)CC/C=C(\C)CC/C=C(\C)CC/C=C(\C)CC/C=C(\C)CC/C=C(\C)CC/C=C(\C)CCC=C(C)C)=C(C)C1=O [compound 4, Coenzyme Q10]
